Laboratory results as given in patent US9992994B2, “Agricultural and detergent compositions containing a tertiary amide as adjuvant or as surfactant” (Taminco BVBA, priority 2011, dated 2018).
Like-named read-outs stand apart in the source and are kept apart here.

Columns and labels:
[1] = 20° C., cited from earlier work
[2] = tested on: Black nightshade (Solanum nigrum L.; SOLNI); conditions: Dicamba DMA-salt, Banvel, 16 DAT
Procedure: Black nightshade (Solanum nigrum L.; SOLNI) was grown in a growth chamber under 14 h of light, at 18/12 (±0.5) ° C. (day/night) temperature, and in 70/80 (±5)% (day/night) relative humidity. Light was provided by high-pressure mercury lamps and fluorescent tubes to give 250 pmol m^−2 s^−1 at leaf level. The plants were grown in 11-cm-diam plastic pots filled with a mixture of sand and humic potting soil (1:2 by volume). The pots were placed on subirrigation matting, which was wetted daily with a half-strength nutrient solution. After emergence, the seedlings were thinned to one plant per pot for the efficacy experiments. Black nightshade was treated at the four-leaf stage. The fresh weights of the plants were measured 16 days after treatment (16 DAT).
The treatment solutions were applied with an air-pressured laboratory track sprayer having 1.2-mm nozzles fitted with a perforated (0.6 mm) whirling pin and delivering 200 L/ha at 303 kPa.
The experiment was conducted with four replicates per experiment according to a completely randomized design.

[3] = tested on: Wild oat (Avena fatua L.; AVEFA); test: adjuvant for Fenoxaprop-P-ethyl test; format: in vivo; conditions: Puma EW, 21 DAT
Procedure: In this test the performance with Fenoxaprop-P-ethyl was looked at. Plant material. […] After emergence, the seedlings were thinned to four plants per pot for the efficacy experiments. The plants were treated at the three-leaf stage. The fresh weights of the plants were measured 21 days after treatment (21 DAT). […] The following herbicide was included in the treatment solutions: Fenoxaprop-P-ethyl, Puma EW formulation, 69 g a.i./L. […] Demineralized water was used as the carrier.

[4] = sub-optimal rate + N,N-bis(3-(dimethylamino)propyl)octanamide 0.25% (w/v)
[5] = sub-optimal rate, no adjuvant, average of four replicates

SMILES	log Kow ([1]; at pH 7)	Fresh Weight SOLNI (g) Herbicide + Adjuvant [2, 4] [g]	Fresh weight SOLNI (g) Only herbicide [2, 5] [g]	log Kow ([1]; no pH given)	Fresh Weight Wild Oat (g) Herbicide + Compound [3, 4] [g]	Fresh weight Wild Oat (g) Only herbicide [3, 5] [g]
COc1c(Cl)ccc(Cl)c1C(=O)O [Dicamba]	−1.9	6.7	10.8			
CCOC(=O)[C@@H](C)Oc1ccc(Oc2nc3ccc(Cl)cc3o2)cc1 [Fenoxaprop-P-ethyl]				4.3	1.4	16.4
